The test system of assay [1] is degranulation in RBL cells. The experiment in a line: Inhibition of degranulation in RBL cells. In kind it is cell-based. The following applies: Rattus norvegicus, anti-DNP IgE, read-out: IC50 (concentration which inhibits 50% of degranulation in RBL cells). The procedure: The day before the assay was performed, RBL cells, that had been grown to confluence in a 96 well plate, were incubated at 37° C. for at least 2 hours. The medium was replaced in each well with 100 μL of fresh medium containing […] of anti-DNP IgE.
On the following day, the cells were washed once with PRS (2.6 mM glucose and 0.1% BSA) and 160 μL of PRS was added to each well. A test compound was added to a well in a 20 μL solution at 10× of the desired concentration and incubated for 20 to 40 minutes at 37° C. 20 μL of 10× mouse anti-IgE ([…]) was added. Maximum degranulation occurred between 15 to 40 minutes after addition of anti-IgE.

Assay [2] concerns ICRAC in human Jurkat T cells. Description: Whole-cell patch clamp, inhibition of ICRAC current in Jurkat T cells. In kind it is cell-based. The protocol: Patch clamp experiments were performed in the tight-seal whole-cell configuration at 21-25° C. High resolution current recordings were acquired by a computer-based patch clamp amplifier system (EPC-9, HEKA, Lambrecht, Germany). Patch pipettes had resistances between 2-4 MΩ after filling with the standard intracellular solution. Immediately following establishment of the whole-cell configuration, voltage ramps of 50-200 ms duration spanning the voltage range of −100 to +100 mV were delivered at a rate of 0.5 Hz over a period of 300-400 seconds. […] Capacitive currents and series resistance were determined and corrected before each voltage ramp using the automatic capacitance compensation of the EPC-9. The low resolution temporal development of membrane currents was assessed by extracting the current amplitude at −80 mV or +80 mV from individual ramp current records.
In general, a whole cell patch clamp method was used to examine the effects of a compound of the invention on a channel that mediates Icrac. […] Then a compound to be tested was perfused (or puffed) to cells in the external solution and the effect of the compound on Icrac was measured. […]
Patch-clamp experiments were performed in the tight-seal whole-cell configuration at 21-25° C. […] Capacitive currents and series resistance were determined and corrected before each voltage ramp using the automatic capacitance compensation of the EPC-9. […]
In general terms: In patch-clamp work, channel activity is measured electrically.

Assay [3] relates to chemotactic response of human T cells to MIP-1α. Description: T cell chemotaxis (cell migration) assay, human T cells. In kind it is cell-based. The note with it: 100 ng/ml MIP-1α, FIG. 1. The procedure:
(§1) Twenty ml aliquots of heparinized whole blood (2 pig, 1 human) were subjected to density gradient centrifugation on Ficoll Hypaque. The buffy coat layers representing peripheral blood mononuclear cells (PBMCs) containing lymphocytes and monocytes were washed once, resuspended in 12 ml of incomplete RPMI 1640 and then placed in gelatin-coated T75 culture flasks for 1 hr at 37° C. The non-adherent cells, representing peripheral blood lymphocytes (PBLs) depleted of monocytes, were resuspended in complete RPMI media and placed in loosely packed activated nylon wool columns that had been equilibrated with warm media. After 1 hr at 37° C., the non-adherent T cell populations were eluted by washing of the columns with additional media. The T cell preparations were centrifuged, resuspended in 5 ml of incomplete RPMI, and counted using a hemocytometer.
(§2) Aliquots of each T cell preparation were labeled with Calcien AM (TefLabs) and suspended at a concentration of 2.4×10^6/ml in HEPES-buffered Hank's Balanced Salt Solution containing 1.83 mM CaCl2 and 0.8 mM MgCl2, pH 7.4 (HHBSS). […] The chemotaxis units were then placed in a CytoFlour 4000 (PerSeptive BioSystems) and the fluorescence of each well measured (excitation and emission wavelengths of 450 and 530 nm, respectively). […]

In assay [4] the test system is chemotactic response of porcine T cells to MIP-1α. The experiment in a line: T cell chemotaxis (cell migration) assay, porcine T cells. In kind it is cell-based, pig. The note with it: Sus scrofa, 10 ng/ml MIP-1α, 2 hr migration, averages of triplicates, read-out: IC50, inhibition of chemotactic response of porcine T cells. The protocol: as §1, §2
The next assay deals with IL-2 production. The experiment in a line: Inhibition of IL-2 production in PHA-activated Jurkat cells (ELISA). In kind it is cell-based, human. The note with it: Homo sapiens, Jurkat, 20 h, Jurkat cells, PHA 2.5 μg/mL, 20 hours, IL-2 ELISA; read-out: IC50 (inhibition of IL-2 production). (An ELISA detects its analyte on a solid surface through an enzyme-linked reagent.)

For the compound `COC(=O)c1ccc(C)c(-c2ccc(NC(=O)c3c(F)cccc3F)cc2)c1` [Compound 1, 4′-(2,6-Difluoro-benzoylamino)-6-methyl-biphenyl-3-carboxylic acid methyl ester], the IC50 in assay [1] is 2520 nM; in assay [4], ~5 nM; in the assay on IL-2 production it was 2 to 4 nM. Further, the “Inhibition of ICRAC in human Jurkat T cells” value in assay [2] is on record as “strong inhibitor”. The “Inhibition of chemotactic response of human T cells” value in assay [3] was “inhibitory”.

These data come from patent US8592486B2, “Compounds for inflammation and immune-related uses” (Synta Pharmaceuticals Corp., priority 2005, dated 2013).
